Assay results: PubChem BioAssay (NCI)
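Step 1: Grow cells in 96-well plates. Step 2: Expose to compound for 48 hours at 5 concentrations. Step 3: Interpolate endpoints linearly; if unreached, use highest concentration. Here, GI50 denotes the concentration required for 50% inhibition of growth. TGI: total growth inhibition.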

Experiments:
Assay in all cases: NCI tumour cell line growth inhibition, 48 h
[1] = test system: MCF7 breast
[2] = test system: OVCAR-3 ovarian
[3] = test system: PC-3 prostate
[4] = test system: NCI-H460 lung
[5] = test system: SF-295 CNS
[6] = test system: SNB-19 CNS
[7] = test system: HCC-2998 colon
[8] = test system: NCI-H522 lung
[9] = test system: RXF 393 renal
[10] = test system: MOLT-4 leukemia

Row | Structure (SMILES) | TGI [1] [µM] | TGI [2] [µM] | TGI [3] [µM] | TGI [4] [µM] | TGI [5] [µM] | TGI [6] [µM] | TGI [7] [µM] | TGI [8] [nM] | TGI [9] [µM] | TGI [10] [µM] | GI50 [1] [nM] | GI50 [2] [nM] | GI50 [3] [nM] | GI50 [4] [nM] | GI50 [5] [µM] | GI50 [6] [nM] | GI50 [7] [nM] | GI50 [8] [nM] | GI50 [9] [nM] | GI50 [10] [nM]
1 | CN(C)C(=S)/N=c1\ssc(=S)n1Cc1cccs1 | > 30.4 | 6.57 | > 100 | > 89.7 | 21.8 | > 90.9 | > 100 | 9600 | 23.9 | > 100 | – | – | – | – | – | – | – | – | – | –
2 | O=C1Nc2ccccc2/C1=C\c1cccc(/C=C2/C(=O)Nc3ccccc32)n1 | 0.851 | 0.683 | 3.31 | 1.85 | 2.24 | 1.98 | 1.77 | 705 | 0.61 | – | 226 | 254 | 654 | 669 | 0.499 | 526 | 615 | 208 | 248 | 509
3 | CCCCC[C@H]1CC=C2C(=O)C=C[C@@H]2CC=CCCCC(=O)O[C@@H](CCCCC)CC=C2C(=O)C=C[C@@H]2CC=CCCCC(=O)O[C@@H](CCCCC)CC=C2C(=O)C=C[C@@H]2CC=CCCCC(=O)O1 | 2.2 | 0.532 | 1.5 | 2.87 | 5.13 | > 8.75 | 0.888 | 797 | 0.422 | > 8.75 | 286 | 192 | 342 | 488 | 0.432 | 550 | 264 | 218 | 194 | 266
4 | C[C@]12CC[C@@H]3c4ccc(O)cc4CC[C@H]3[C@@H]1CC[C@@H]2NS(=O)(=O)c1cccc(Cl)c1 | 7.46 | – | 11.9 | 5.02 | 10.8 | 14.4 | 10.4 | 7150 | 4.9 | 8.97 | 2920 | – | 2980 | 2240 | 3.1 | 3870 | 3450 | 1910 | 1910 | 2140
5 | COc1cc2c3c(n(CCCCNC(=O)OC(C)(C)C)c(=O)c2cc1OC)-c1cc2c(cc1C3=O)OCO2 | > 100 | 65.9 | > 100 | > 100 | > 100 | > 100 | > 100 | > 100000 | 62.1 | – | 5150 | 225 | > 100000 | 5660 | 16.1 | > 100000 | > 100000 | > 100000 | 17500 | –
6 | C=C1C(=O)O[C@H]2[C@H]1CC/C(Cn1cc(Cc3c[nH]c4ccccc34)nn1)=C\CC[C@@]1(C)O[C@@H]21 | 3.34 | 3.15 | 3.81 | 10.6 | 17.2 | 6.33 | 3.92 | 3000 | 3.63 | 6.04 | 1500 | 1730 | 1880 | 3510 | 4.71 | 2550 | 2180 | 1430 | 1630 | 2290
